Tests used:
[1] = system: gut epithelial barrier; conditions: models of IBD (Di Paolo et al., 1996; Liu et al., 2009); cited from earlier work
[2] = tablet; the remaining has local effects in the colon; cited from earlier work
[3] = system: MODE-K intestinal cells; assay: ZO-1 expression in MODE-K cells treated with IFNγ; assay type: cell-based, murine; conditions: recombinant mouse IFNγ 5 or 10 ng/mL, 24 hours
Method: To measure the effect of IFNγ on tight-junction gene expression, we treated MODE-K cells with recombinant mouse IFNγ (Biolegend). We purified bulk dendritic cells and T cells from murine small bowels and spleens using a negative selection DC or T cell isolation kit (Stem Cell Technologies). We plated T cells at 5×10^5 cells/well with plate-bound anti-CD3/CD28 (1 μg/ml, Biolegend). […] We collected supernatants for cytokine measurements after 72 hour incubation. […] After 24 hours, we washed the cells with PBS and co-cultured them (1×10^4 cells/well) with OVA323-339 peptide and OT-II splenic or small bowel T cells (5×10^4 cells/well) for 48 hours. Supernatants were collected at 48 hours for cytokine measurement.
The murine intestinal epithelial cell line derived from C3H/He mice. […]
We extracted total RNA from isolated or cultured cells using a RNeasy Mini Kit (Qiagen), and for subcutaneous adipose tissue (SAT) and VAT we used a RNeasy Lipid Extraction kit (Qiagen). […] We assessed expression of adipocyte P2 (aP2), CCAAT/enhancer-binding protein-α (CEBPα), Peroxisome proliferator-activated receptor-γ (PPARγ), and sterol regulatory element-binding protein (SREBP) cDNA. […] We calculated relative fold changes in gene expression normalized to 18s or GAPDH by the ΔΔCT method using the equation 2-ΔΔCT. […]

For O=C(O)CCNC(=O)c1ccc(/N=N/c2ccc(O)c(C(=O)O)c2)cc1 [Balsalazide], the “intactness of the gut epithelial barrier” value [1] is listed as “beneficial effects”.

For O=C(O)c1cc(/N=N/c2ccc(S(=O)(=O)Nc3ccccn3)cc2)ccc1O [Sulfasalazine], the “absorbed in small bowel” value [2] is given as “approximately 20%”.

B1: IFNγ: recombinant mouse IFNγ (Biolegend) (protein, UniProt P01580 23-155, looked up)
Interferon gamma: HGTVIESLESLNNYFNSSGIDVEEKSLFLDIWRNWQKDGDMKILQSQIISFYLRLFEVLKDNQAISNNISVIESHLITTFFSNSKAKKDAFMSIAKFEVNNPQVQRQAFNELIRVVHQLLPESSLRKRKRSRC
For B1, the “ZO-1 tight junction gene expression” value [3] was “reduce”.
